Measured values as given in ChEMBL document CHEMBL3885881, “DrugMatrix”.
Starred links: 1 amine or outer side, 2 acyl side, 3 side chain; linkers in the order of their positions; H or OH if unused. Positions of bridges follow the written chain, without caps; N, C: chain ends. Non-standard residues stand in square brackets, D forms with d. Residues, ends and D or L forms follow the SMILES beside them. Chains are numbered I, II in the order given. Actinocin(9to1) = Cc1c2oc3c(C)ccc(C(=O)[*:1])c3nc-2c(C(=O)[*:2])c(N)c1=O; NMeV = CN[C@H](C(=O)O)C(C)C; Sar = CNCC(=O)O

Species on record: Rattus norvegicus
Assay: DrugMatrix - Regimen: Daily Repeat
Assay type: toxicity, organism-based, Sprague-Dawley
Design: regimen Daily Repeat, gender Male, age 6-8 weeks
Details: in vivo, iv, vehicle 100 % SALINE; for ABSOLUTE BASOPHIL / ABSOLUTE EOSINOPHIL / ABSOLUTE LYMPHOCYTE / ABSOLUTE MONOCYTE / ABSOLUTE SEGMENTED NEUTROPHIL / BASOPHIL / EOSINOPHIL / ERYTHROCYTE COUNT / HEMATOCRIT / HEMOGLOBIN / LEUKOCYTE COUNT / LYMPHOCYTE / MEAN CORPUSCULAR HEMOGLOBIN / MEAN CORPUSCULAR HEMOGLOBIN CONCENTRATION / MEAN CORPUSCULAR VOLUME / MONOCYTE / NEUTROPHIL / NUCLEATED RED BLOOD CELLS / PLATELET COUNT: tissue Blood; for ALANINE AMINOTRANSFERASE / ALBUMIN / ALKALINE PHOSPHATASE / ASPARTATE AMINOTRANSFERASE / BLOOD UREA NITROGEN / CARBON DIOXIDE / CHLORIDE / CHOLESTEROL / CREATINE PHOSPHOKINASE / CREATININE / GLUCOSE / LACTATE DEHYDROGENASE / LIPASE / PHOSPHORUS / POTASSIUM / SODIUM / TOTAL BILIRUBIN / TOTAL PROTEIN / URIC ACID: tissue Plasma
[1] = 0 mg/kg, 72 h, dose level Control, time 3 day
[2] = 0 mg/kg, 120 h, dose level Control, time 5 day
[3] = 0.006 mg/kg, 72 h, dose level Low, time 3 day

Cc1c2oc3c(C)ccc(C(=O)N[C@@H]4C(=O)N[C@H](C(C)C)C(=O)N5CCC[C@H]5C(=O)N(C)CC(=O)N(C)[C@@H](C(C)C)C(=O)O[C@@H]4C)c3nc-2c(C(=O)N[C@@H]2C(=O)N[C@H](C(C)C)C(=O)N3CCC[C@H]3C(=O)N(C)CC(=O)N(C)[C@@H](C(C)C)C(=O)O[C@@H]2C)c(N)c1=O [DACTINOMYCIN] (I: T[dV]P[Sar][NMeV] / II: T[dV]P[Sar][NMeV]; ester I:1-I:C, II:1-II:C; linker I:N-II:N via Actinocin(9to1))
ABSOLUTE BASOPHIL [1]: 0 CELLS/uL | ABSOLUTE EOSINOPHIL [1]: 33.67 CELLS/uL | ABSOLUTE LYMPHOCYTE [1]: 12123.5 CELLS/uL | ABSOLUTE MONOCYTE [1]: 243.5 CELLS/uL | ABSOLUTE SEGMENTED NEUTROPHIL [1]: 1282.67 CELLS/uL | BASOPHIL [1]: 0% | EOSINOPHIL [1]: 0.33% | ERYTHROCYTE COUNT [1]: 5.18 x10E6/uL | HEMATOCRIT [1]: 32.63% | HEMOGLOBIN [1]: 12.87 G/DL | LEUKOCYTE COUNT [1]: 13.68 x10E3/uL | LYMPHOCYTE [1]: 88.67% | MEAN CORPUSCULAR HEMOGLOBIN [1]: 24.98 pg | MEAN CORPUSCULAR HEMOGLOBIN CONCENTRATION [1]: 39.48 G/DL | MEAN CORPUSCULAR VOLUME [1]: 63.23 fL | MONOCYTE [1]: 1.83% | NEUTROPHIL [1]: 9.17% | NUCLEATED RED BLOOD CELLS [1]: 0.17 /100WBC | PLATELET COUNT [1]: 1114.5 x10E3/uL | ALANINE AMINOTRANSFERASE [1]: 46.17 u/L | ALBUMIN [1]: 4.15 G/DL | ALKALINE PHOSPHATASE [1]: 374.67 u/L | ASPARTATE AMINOTRANSFERASE [1]: 89.33 u/L | BLOOD UREA NITROGEN [1]: 14.83 mg/dL | CARBON DIOXIDE [1]: 25.67 mmol/L | CHLORIDE [1]: 101.17 MEQ/L | CHOLESTEROL [1]: 63.5 mg/dL | CREATINE PHOSPHOKINASE [1]: 494.67 u/L | CREATININE [1]: 0.17 mg/dL | GLUCOSE [1]: 163 mg/dL | LACTATE DEHYDROGENASE [1]: 269.33 u/L | LIPASE [1]: 10.67 u/L | PHOSPHORUS [1]: 11.27 mg/dL | POTASSIUM [1]: 5.85 MEQ/L | SODIUM [1]: 141.68 MEQ/L | TOTAL BILIRUBIN [1]: 0.18 mg/dL | TOTAL PROTEIN [1]: 5.87 G/DL | URIC ACID [1]: 1.28 mg/dL | ABSOLUTE BASOPHIL [2]: 0 CELLS/uL | ABSOLUTE EOSINOPHIL [2]: 24.67 CELLS/uL | ABSOLUTE LYMPHOCYTE [2]: 11832.83 CELLS/uL | ABSOLUTE MONOCYTE [2]: 279.67 CELLS/uL | ABSOLUTE SEGMENTED NEUTROPHIL [2]: 1446.17 CELLS/uL | BASOPHIL [2]: 0% | EOSINOPHIL [2]: 0.17% | ERYTHROCYTE COUNT [2]: 5.61 x10E6/uL | HEMATOCRIT [2]: 35.02% | HEMOGLOBIN [2]: 13.82 G/DL | LEUKOCYTE COUNT [2]: 13.58 x10E3/uL | LYMPHOCYTE [2]: 87.67% | MEAN CORPUSCULAR HEMOGLOBIN [2]: 24.68 pg | MEAN CORPUSCULAR HEMOGLOBIN CONCENTRATION [2]: 39.5 G/DL | MEAN CORPUSCULAR VOLUME [2]: 62.42 fL | MONOCYTE [2]: 2% | NEUTROPHIL [2]: 10.17% | NUCLEATED RED BLOOD CELLS [2]: 0 /100WBC | PLATELET COUNT [2]: 1178.17 x10E3/uL | ALANINE AMINOTRANSFERASE [2]: 52.83 u/L | ALBUMIN [2]: 4.12 G/DL | ALKALINE PHOSPHATASE [2]: 370 u/L | ASPARTATE AMINOTRANSFERASE [2]: 100.5 u/L | BLOOD UREA NITROGEN [2]: 15.17 mg/dL | CARBON DIOXIDE [2]: 28.83 mmol/L | CHLORIDE [2]: 101 MEQ/L | CHOLESTEROL [2]: 69.5 mg/dL | CREATINE PHOSPHOKINASE [2]: 488.67 u/L | CREATININE [2]: 0.23 mg/dL | GLUCOSE [2]: 165 mg/dL | LACTATE DEHYDROGENASE [2]: 502.17 u/L | LIPASE [2]: 11 u/L | PHOSPHORUS [2]: 11.7 mg/dL | POTASSIUM [2]: 5.85 MEQ/L | SODIUM [2]: 142.45 MEQ/L | TOTAL BILIRUBIN [2]: 0.18 mg/dL | TOTAL PROTEIN [2]: 5.85 G/DL | URIC ACID [2]: 1.43 mg/dL | ABSOLUTE BASOPHIL [3]: 0 CELLS/uL | ABSOLUTE EOSINOPHIL [3]: 0 CELLS/uL | ABSOLUTE LYMPHOCYTE [3]: 7777.33 CELLS/uL | ABSOLUTE MONOCYTE [3]: 151.33 CELLS/uL | ABSOLUTE SEGMENTED NEUTROPHIL [3]: 1138 CELLS/uL | BASOPHIL [3]: 0% | EOSINOPHIL [3]: 0% | ERYTHROCYTE COUNT [3]: 5.68 x10E6/uL | HEMATOCRIT [3]: 35.57% | HEMOGLOBIN [3]: 13.43 G/DL | LEUKOCYTE COUNT [3]: 9.07 x10E3/uL | LYMPHOCYTE [3]: 85.67% | MEAN CORPUSCULAR HEMOGLOBIN [3]: 23.67 pg | MEAN CORPUSCULAR HEMOGLOBIN CONCENTRATION [3]: 37.77 G/DL | MEAN CORPUSCULAR VOLUME [3]: 62.63 fL | MONOCYTE [3]: 1.67% | NEUTROPHIL [3]: 12.67% | NUCLEATED RED BLOOD CELLS [3]: 0 /100WBC | PLATELET COUNT [3]: 1053 x10E3/uL | ALANINE AMINOTRANSFERASE [3]: 49.33 u/L | ALBUMIN [3]: 4.33 G/DL | ALKALINE PHOSPHATASE [3]: 363.33 u/L | ASPARTATE AMINOTRANSFERASE [3]: 85.33 u/L | BLOOD UREA NITROGEN [3]: 14 mg/dL | CARBON DIOXIDE [3]: 26 mmol/L | CHLORIDE [3]: 101.67 MEQ/L | CHOLESTEROL [3]: 85.33 mg/dL | CREATINE PHOSPHOKINASE [3]: 333 u/L | CREATININE [3]: 0.25 mg/dL | GLUCOSE [3]: 155.67 mg/dL | LACTATE DEHYDROGENASE [3]: 134 u/L | LIPASE [3]: 11 u/L | PHOSPHORUS [3]: 10.57 mg/dL | POTASSIUM [3]: 6.37 MEQ/L | SODIUM [3]: 143.37 MEQ/L | TOTAL BILIRUBIN [3]: 0.3 mg/dL | TOTAL PROTEIN [3]: 6.17 G/DL | URIC ACID [3]: 1.6 mg/dL
